ChEMBL document CHEMBL5055670, “Sublyratins A-O, Labdane-Type Diterpenoids from Croton sublyratus” (J Nat Prod, 2021)
pIC50: −log10 of the molar value. Where a name gives a salt, the structure may show the parent alone.

Test system: A549
Assay: Cytotoxicity against human A549 cells assessed as cell growth inhibition by SRB assay
Format: functional, cell-based
Details: not given

Going from `COc1cccc2c1C(=O)c1c(O)c3c(c(O)c1C2=O)C[C@@](O)(C(=O)CO)C[C@@H]3O[C@H]1C[C@H](N)[C@H](O)[C@H](C)O1` [DOXORUBICIN HYDROCHLORIDE] to `C=C[C@@](C)(O)[C@@H]1C[C@H]2C(=CC[C@H]3C(C)(C)CCC[C@]23C)C(=O)O1`, the pIC50 falls from 6.07 to < 5.00. The first is the more potent here.

`C=C[C@@](C)(O)[C@H]1C[C@H]2C(=CC[C@H]3C(C)(C)CCC[C@]23C)C(=O)O1` and `C=C[C@](C)(O)[C@@H]1C[C@H]2C(=CC[C@H]3C(C)(C)CCC[C@]23C)C(=O)O1` cannot be ordered by pIC50: < 5.00 for the first, < 5.00 for the second.

In the case of `C=C[C@](C)(O)[C@H]1C[C@H]2C(=CC[C@H]3C(C)(C)CCC[C@]23C)C(=O)O1`, the pIC50 was < 5.00.

Test system: HL-60
Assay: Cytotoxicity against human HL-60 cells assessed as cell growth inhibition incubated for 72 hrs by CCK8 assay
Format: functional, cell-based
Details: HL-60, 72 h

Going from `C=C[C@@](C)(O)[C@@H]1C[C@H]2C(=CC[C@H]3C(C)(C)CCC[C@]23C)C(=O)O1` to `C=C[C@@](C)(O)[C@H]1C[C@H]2C(=CC[C@H]3C(C)(C)CCC[C@]23C)C(=O)O1`, the pIC50 falls from 5.82 to 5.55 (0.27 log units).

`C=C[C@](C)(O)[C@@H]1C[C@H]2C(=CC[C@H]3C(C)(C)CCC[C@]23C)C(=O)O1` and `C=C[C@](C)(O)[C@H]1C[C@H]2C(=CC[C@H]3C(C)(C)CCC[C@]23C)C(=O)O1` are within 0.2 log units of each other in pIC50: 5.62 for the first, 5.59 for the second.
